From US20240166609A1, “ANTIBACTERIAL COMPOUNDS” (BLACKSMITH MEDICINES, INC., priority 2021, published 2024)
Converted amounts (≈) assume the structure as drawn.

Assays:
Experiment in all cases: Bacterial susceptibility testing, MIC by broth microdilution (CLSI)
Type in all cases: cell-based
[1] = test system: K. pneumoniae ATCC13883; settings: Klebsiella pneumoniae, 35° C., 18-24 h, read-out: MIC (μg/mL) K. pneumoniae ATCC13883
Description: (§1) Minimal inhibitory concentrations (MIC) were determined by the broth microdilution method in accordance with the Clinical and Laboratory Standards Institute (CLSI) guidelines. In brief, organism suspensions were adjusted to a final inoculum between 3×10^5 and 7×10^5 colony-forming units (CFU)/mL. Drug dilutions and inocula were made in sterile, cation adjusted Mueller-Hinton Broth (Beckton Dickinson). In wells, an inoculum volume of 100 μL was mixed to 2 μL of DMSO with 2-fold serial dilutions of drug. All inoculated microdilution trays were incubated in ambient air at 35° C. for 18-24 h. Following incubation, the lowest concentration of the drug that prevented visible growth (OD600 nm<0.05) was recorded as the MIC. Performance of the assay was monitored by the use of laboratory quality-control strains and compounds with defined MIC spectrum, in accordance with CLSI guidelines

[2] = test system: P. aeruginosa 209 PAO1; settings: Pseudomonas aeruginosa, 35° C., 18-24 h, read-out: MIC (μg/mL) P. aeruginosa 209 PAO1
Description: as §1

[3] = test system: P. aeruginosa ATCC27835; settings: Pseudomonas aeruginosa, 35° C., 18-24 h, read-out: MIC (μg/mL) P. aeruginosa ATCC27835
Description: as §1

[4] = test system: E. coli ATCC25922; settings: Escherichia coli, 35° C., 18-24 h, read-out: MIC (μg/mL) E. coli ATCC25922
Description: as §1

Row | SMILES | MIC [1] [µg/mL] | MIC [2] [µg/mL] | MIC [3] [µg/mL] | MIC [4] [µg/mL]
1 | C[C@H](O)c1nccn1[C@@H](C#Cc1ccc(-c2ccc(C[C@@H]3COC[C@H]3O)cc2)cc1)CO [Compound 41, (3S,4R)-4-((4′-((S)-4-hydroxy-3-(2-((S)-1-hydroxyethyl)-1H-imidazol-1-yl)but-1-yn-1-yl)-[1,1′-biphenyl]-4-yl)methyl)tetrahydrofuran-3-ol] | 2 (≈ 4.62 µM) | 4 (≈ 9.25 µM) | 2 (≈ 4.62 µM) | 0.5 (≈ 1.16 µM)
2 | COCCN1C[C@@H](O)[C@H](Oc2ccc(-c3ccc(C#C[C@@H](CO)n4ccnc4[C@H](C)O)cc3)cc2)C1 [Compound 44, (3R,4R)-4-((4′-((S)-4-hydroxy-3-(2-((S)-1-hydroxyethyl)-1H-imidazol-1-yl)but-1-yn-1-yl)-[1,1′-biphenyl]-4-yl)oxy)-1-(2-methoxyethyl)pyrrolidin-3-ol] | 4 (≈ 8.14 µM) | 4 (≈ 8.14 µM) | 4 (≈ 8.14 µM) | 2 (≈ 4.07 µM)
3 | C[C@H](O)c1nccn1[C@@H](C#Cc1ccc(-c2ccc(O[C@@H]3COC[C@H]3O)cc2)cc1)CCO [Compound 43, (3R,4R)-4-((4′-((R)-5-hydroxy-3-(2-((S)-1-hydroxyethyl)-1H-imidazol-1-yl)pent-1-yn-1-yl)-[1,1′-biphenyl]-4-yl)oxy)tetrahydrofuran-3-ol] | 2 (≈ 4.46 µM) | 4 (≈ 8.92 µM) | 2 (≈ 4.46 µM) | 1 (≈ 2.23 µM)
4 | C[C@H](O)c1nccn1[C@@H](C#Cc1ccc(-c2ccc(C3CC(N[C@H]4COC[C@@H]4O)C3)cc2)cc1)CO (stereo partly drawn) [Compound 38, (3R,4S)-4-((3-(4′-((S)-4-hydroxy-3-(2-((S)-1-hydroxyethyl)-1H-imidazol-1-yl)but-1-yn-1-yl)-[1,1′-biphenyl]-4-yl)cyclobutyl)amino)tetrahydrofuran-3-ol] | 8 (≈ 16.4 µM) | 4 (≈ 8.2 µM) | 4 (≈ 8.2 µM) | 2 (≈ 4.1 µM)
5 | C[C@H](O)c1nccn1[C@@H](C#Cc1ccc(-c2ccc(C3CC(NC(C#N)CO)C3)cc2)cc1)CO (stereo partly drawn) [Compound 33, 3-hydroxy-2-((3-(4′-((S)-4-hydroxy-3-(2-((S)-1-hydroxyethyl)-1H-imidazol-1-yl)but-1-yn-1-yl)-[1,1′-biphenyl]-4-yl)cyclobutyl)amino)propanenitrile] | 4 (≈ 8.5 µM) | 2 (≈ 4.25 µM) | 2 (≈ 4.25 µM) | 
6 | C[C@H](O)c1nccn1[C@@H](C#Cc1ccc(-c2ccc(C3CC(NC4C(O)OC(CO)C(O)C4O)C3)cc2)cc1)CO (stereo partly drawn) [Compound 39, 3-((3-(4′-((S)-4-hydroxy-3-(2-((S)-1-hydroxyethyl)-1H-imidazol-1-yl)but-1-yn-1-yl)-[1,1′-biphenyl]-4-yl)cyclobutyl)amino)-6-(hydroxymethyl)tetrahydro-2H-pyran-2,4,5-triol] | 32 (≈ 56.8 µM) | 4 (≈ 7.1 µM) | 8 (≈ 14.2 µM) | 8 (≈ 14.2 µM)
7 | C[C@H](O)c1nccn1[C@@H](C#Cc1ccc(-c2ccc(C3CC(NCC(F)(F)CO)C3)cc2)cc1)CO (stereo partly drawn) [Compound 34, (S)-4-(4′-(3-((2,2-difluoro-3-hydroxypropyl)amino)cyclobutyl)-[1,1′-biphenyl]-4-yl)-2-(2-((S)-1-hydroxyethyl)-1H-imidazol-1-yl)but-3-yn-1-ol] | 2 (≈ 4.04 µM) | 2 (≈ 4.04 µM) | 4 (≈ 8.07 µM) | 0.5 (≈ 1.01 µM)
8 | C[C@H](O)c1nccn1[C@H](C#Cc1ccc(-c2ccc(OC[C@@H](N)CO)cc2)cc1)CO [Compound 2, (R)-4-(4′-((S)-2-amino-3-hydroxypropoxy)-[1,1′-biphenyl]-4-yl)-2-(2-((S)-1-hydroxyethyl)-1H-imidazol-1-yl)but-3-yn-1-ol] | 16 (≈ 38 µM) | 2 (≈ 4.74 µM) | 2 (≈ 4.74 µM) | 8 (≈ 19 µM)
9 | C[C@@H](O)c1nccn1[C@H](C#Cc1ccc(-c2ccc(OCC(N)CO)cc2)cc1)CO (mixture of isomers) [Compound 1, (2R)-4-(4′-(2-amino-3-hydroxypropoxy)-[1,1′-biphenyl]-4-yl)-2-(2-((R)-1-hydroxyethyl)-1H-imidazol-1-yl)but-3-yn-1-ol] | 32 (≈ 75.9 µM) | 1 (≈ 2.37 µM) | 1 (≈ 2.37 µM) | 8 (≈ 19 µM)
10 | C[C@H](O)c1nccn1[C@@H](C#Cc1ccc(-c2ccc(COCC(N)CO)cc2)cc1)CO (mixture of isomers) [Compound 6, (2S)-4-(4′-((2-amino-3-hydroxypropoxy)methyl)-[1,1′-biphenyl]-4-yl)-2-(2-((S)-1-hydroxyethyl)-1H-imidazol-1-yl)but-3-yn-1-ol] | 32 (≈ 73.5 µM) | 2 (≈ 4.59 µM) | 4 (≈ 9.18 µM) | 16 (≈ 36.7 µM)
11 | C[C@H](O)c1nccn1[C@@H](C#Cc1ccc(-c2ccc(C3CC(NCc4noc(C(N)=O)n4)C3)cc2)cc1)CO (stereo partly drawn) [Compound 35, 3-(((3-(4′-((S)-4-hydroxy-3-(2-((S)-1-hydroxyethyl)-1H-imidazol-1-yl)but-1-yn-1-yl)-[1,1′-biphenyl]-4-yl)cyclobutyl)amino)methyl)-1,2,4-oxadiazole-5-carboxamide] | 2 (≈ 3.8 µM) | 4 (≈ 7.6 µM) | 4 (≈ 7.6 µM) | 0.5 (≈ 0.949 µM)
12 | C[C@H](O)c1nccn1[C@@H](C#Cc1ccc(-c2ccc(C3CC(NC(=O)CC#N)C3)cc2)cc1)CO (stereo partly drawn) [Compound 40, 2-cyano-N-(3-(4′-((S)-4-hydroxy-3-(2-((S)-1-hydroxyethyl)-1H-imidazol-1-yl)but-1-yn-1-yl)-[1,1′-biphenyl]-4-yl)cyclobutyl)acetamide] | 2 (≈ 4.27 µM) | 4 (≈ 8.54 µM) | 2 (≈ 4.27 µM) | 0.5 (≈ 1.07 µM)
13 | CC(CNC1CC(c2ccc(-c3ccc(C#C[C@@H](CO)n4ccnc4[C@H](C)O)cc3)cc2)C1)C(=O)O (stereo partly drawn) [Compound 37, 3-((3-(4′-((S)-4-hydroxy-3-(2-((S)-1-hydroxyethyl)-1H-imidazol-1-yl)but-1-yn-1-yl)-[1,1′-biphenyl]-4-yl)cyclobutyl)amino)-2-methylpropanoic acid] | 8 (≈ 16.4 µM) | 4 (≈ 8.2 µM) | 4 (≈ 8.2 µM) | 2 (≈ 4.1 µM)
14 | C[C@H](O)c1nccn1CC#Cc1ccc(-c2ccc(C3CC(NCC(=O)O)C3)cc2)cc1 (stereo partly drawn) [Compound 26, (S)-(3-(4′-(3-(2-(1-hydroxyethyl)-1H-imidazol-1-yl)prop-1-yn-1-yl)-[1,1′-biphenyl]-4-yl)cyclobutyl)glycine] | 4 (≈ 9.31 µM) | 4 (≈ 9.31 µM) | 4 (≈ 9.31 µM) | 

Molecules with a lower MIC [1], results first:

Row | MIC [1] [µg/mL] | MIC [2] [µg/mL] | MIC [3] [µg/mL] | MIC [4] [µg/mL] | SMILES
15 | 0.5 (≈ 1.24 µM) | 0.5 (≈ 1.24 µM) | 2 (≈ 4.97 µM) |  | C[C@H](O)c1nccn1[C@@H](C#Cc1ccc(-c2ccc(C3CC(O)C3)cc2)cc1)CO (stereo partly drawn) [Compound 30, 3-(4′-((S)-4-hydroxy-3-(2-((S)-1-hydroxyethyl)-1H-imidazol-1-yl)but-1-yn-1-yl)-[1,1′-biphenyl]-4-yl)cyclobutan-1-ol]
16 | 0.5 (≈ 1.1 µM) | 2 (≈ 4.42 µM) | 4 (≈ 8.84 µM) |  | C[C@H](O)c1nccn1CC#Cc1ccc(-c2ccc(C3CC(NCc4cocn4)C3)cc2)cc1 (stereo partly drawn) [Compound 27, (S)-1-(1-(3-(4′-(3-((oxazol-4-ylmethyl)amino)cyclobutyl)-[1,1′-biphenyl]-4-yl)prop-2-yn-1-yl)-1H-imidazol-2-yl)ethan-1-ol]
17 | 0.5 (≈ 1.17 µM) | 2 (≈ 4.68 µM) | 4 (≈ 9.36 µM) |  | C[C@H](O)c1nccn1CC#Cc1ccc(-c2ccc(C3CC(NCC(=N)N)C3)cc2)cc1 (stereo partly drawn) [Compound 25, (S)-2-((3-(4′-(3-(2-(1-hydroxyethyl)-1H-imidazol-1-yl)prop-1-yn-1-yl)-[1,1′-biphenyl]-4-yl)cyclobutyl)amino)acetimidamide]
18 | 0.5 (≈ 1.1 µM) | 1 (≈ 2.2 µM) | 4 (≈ 8.8 µM) |  | C[C@H](O)c1nccn1[C@@H](C#Cc1ccc(-c2ccc(C3CC(NCCC#N)C3)cc2)cc1)CO (stereo partly drawn) [Compound 32, 3-((3-(4′-((S)-4-hydroxy-3-(2-((S)-1-hydroxyethyl)-1H-imidazol-1-yl)but-1-yn-1-yl)-[1,1′-biphenyl]-4-yl)cyclobutyl)amino)propanenitrile]
19 | 0.5 (≈ 1.13 µM) | 2 (≈ 4.54 µM) | 4 (≈ 9.08 µM) |  | C[C@H](O)c1nccn1[C@@H](C#Cc1ccc(-c2ccc(C3CC(NCC#N)C3)cc2)cc1)CO (stereo partly drawn) [Compound 28, 2-((3-(4′-((S)-4-hydroxy-3-(2-((S)-1-hydroxyethyl)-1H-imidazol-1-yl)but-1-yn-1-yl)-[1,1′-biphenyl]-4-yl)cyclobutyl)amino)acetonitrile]
20 | 0.5 (≈ 1.03 µM) | 2 (≈ 4.14 µM) | 2 (≈ 4.14 µM) |  | C[C@H](O)c1nccn1[C@@H](C#Cc1ccc(-c2ccc(C3CC(NCc4ncon4)C3)cc2)cc1)CO (stereo partly drawn) [Compound 29, (S)-4-(4′-(3-(((1,2,4-oxadiazol-3-yl)methyl)amino)cyclobutyl)-[1,1′-biphenyl]-4-yl)-2-(2-((S)-1-hydroxyethyl)-1H-imidazol-1-yl)but-3-yn-1-ol]
21 | 0.25 (≈ 0.537 µM) | 2 (≈ 4.3 µM) | 4 (≈ 8.59 µM) |  | C[C@H](O)c1nccn1[C@@H](C#Cc1ccc(-c2ccc(C3CC(NCC(F)F)C3)cc2)cc1)CO (stereo partly drawn) [Compound 31, (S)-4-(4′-(3-((2,2-difluoroethyl)amino)cyclobutyl)-[1,1′-biphenyl]-4-yl)-2-(2-((S)-1-hydroxyethyl)-1H-imidazol-1-yl)but-3-yn-1-ol]
22 | 1 (≈ 2.09 µM) | 1 (≈ 2.09 µM) | 2 (≈ 4.17 µM) | 0.25 (≈ 0.521 µM) | C[C@H](O)c1nccn1[C@@H](C#Cc1ccc(-c2ccc([C@H]3C[C@H](NS(C)(=O)=O)C3)cc2)cc1)CO [Compound 36, N-((1S,3r)-3-(4′-((S)-4-hydroxy-3-(2-((S)-1-hydroxyethyl)-1H-imidazol-1-yl)but-1-yn-1-yl)-[1,1′-biphenyl]-4-yl)cyclobutyl)methanesulfonamide]
